Experimental data reported in US20230373985A1 (Origenis Gmbh, priority 2020, published 2023).

Legend:
[1] = molecular target: T1, wt human NUAK1, full length (Homo sapiens, UniProt O60285); assay: TR-FRET LanthaScreen Eu Kinase Binding Assay, NUAK1; settings: read-out: IC50, Activity Toward NUAK1
T1 construct: 8 nM wt human NUAK1, full length (ThermoFisher/USA); purchased ThermoFisher
T1 sequence (O60285 1-661): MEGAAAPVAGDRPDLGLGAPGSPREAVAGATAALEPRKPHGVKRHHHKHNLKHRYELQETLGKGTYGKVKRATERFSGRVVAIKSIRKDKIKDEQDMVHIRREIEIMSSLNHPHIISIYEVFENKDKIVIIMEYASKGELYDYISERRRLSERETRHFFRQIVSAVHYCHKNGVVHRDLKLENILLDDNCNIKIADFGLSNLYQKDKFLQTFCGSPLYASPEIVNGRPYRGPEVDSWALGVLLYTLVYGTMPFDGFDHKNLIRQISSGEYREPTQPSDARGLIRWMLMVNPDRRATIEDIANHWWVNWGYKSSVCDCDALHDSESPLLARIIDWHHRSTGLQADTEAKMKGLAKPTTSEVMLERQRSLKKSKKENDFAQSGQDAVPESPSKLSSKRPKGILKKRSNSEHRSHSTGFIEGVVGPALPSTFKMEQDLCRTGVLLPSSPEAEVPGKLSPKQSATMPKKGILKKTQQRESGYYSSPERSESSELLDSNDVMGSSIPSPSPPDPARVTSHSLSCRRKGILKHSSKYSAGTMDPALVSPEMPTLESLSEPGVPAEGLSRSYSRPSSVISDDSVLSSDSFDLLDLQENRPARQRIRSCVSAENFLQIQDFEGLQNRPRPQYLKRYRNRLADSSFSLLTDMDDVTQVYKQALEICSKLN
In short: (§1)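 Tracer-displacement binding: compound mixed with kinase/Eu-antibody and Kinase Tracer 236 in 1× Kinase Buffer A, 1 h at room temperature, then TR-FRET emission ratio read. LRRK2 (wt or G2019S) 5 nM with 2 nM Eu-anti-GST, 10 nM tracer; NUAK1 8 nM with 2 nM Eu-anti-His, 5 nM tracer.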

[2] = molecular target: T2, wt human JAK1, catalytic site (Homo sapiens, UniProt P23458); assay: HTRF KinEASE assay, JAK1; type: biochemical; settings: 2.5 μM ATP; read-out: IC50, Activity Toward JAK1
T2 construct: wt human JAK1, catalytic site; purchased ThermoFisher
In short: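 Two-step HTRF KinEASE assay: compound, kinase/biotinylated TK substrate and ATP were incubated at least 30 min at room temperature. Antibody plus streptavidin-XL665 was then added and plates were read after 60 min. Inhibition was derived from emission ratios according to the kit protocol.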

[3] = molecular target: T3, wt human LRRK2, catalytic site (Homo sapiens, UniProt Q5S007); assay: TR-FRET LanthaScreen Eu Kinase Binding Assay, LRRK2 wt; settings: one range stated for wt and G2019, read-out: IC50, Activity Toward LRRK2(Wt)
T3 construct: 5 nM wt human LRRK2, catalytic site; purchased ThermoFisher
In short: as §1

[4] = molecular target: T4, wt human TYK2, catalytic site (Homo sapiens, UniProt P29597); assay: HTRF KinEASE assay, TYK2; type: biochemical; settings: 1 μM ATP; read-out: IC50, Activity Toward TYK2
T4 construct: wt human TYK2, catalytic site; purchased SignalChem
T4 sequence (P29597 897-1176 limits assumed): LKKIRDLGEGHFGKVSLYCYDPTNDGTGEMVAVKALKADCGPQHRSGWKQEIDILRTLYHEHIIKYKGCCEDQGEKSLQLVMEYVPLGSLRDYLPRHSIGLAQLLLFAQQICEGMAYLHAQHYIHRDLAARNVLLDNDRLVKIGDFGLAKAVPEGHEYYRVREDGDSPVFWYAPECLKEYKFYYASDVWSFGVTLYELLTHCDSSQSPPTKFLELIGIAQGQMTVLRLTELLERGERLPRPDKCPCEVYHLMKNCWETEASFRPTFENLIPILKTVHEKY
In short: (§2)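 HTRF KinEASE-TK readout with 1 μM biotinylated TK substrate in 1× kinase buffer, ≥30 min at room temperature, then antibody/streptavidin-XL665 detection for 60 min. TYK2 at 2 nM with 1 μM ATP; JAK2 at 1 nM with 100 μM ATP. Analysis uses emission ratios.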

[5] = molecular target: T5, G2019S human LRRK2, catalytic site (Homo sapiens, UniProt Q5S007, G2019S); assay: TR-FRET LanthaScreen Eu Kinase Binding Assay, LRRK2 G2019S; settings: LRRK2(G2019); one range stated for wt and G2019; read-out: IC50, Activity Toward LRRK2(G2019)
T5 construct: G2019S human LRRK2, catalytic site; purchased ThermoFisher
In short: as §1

[6] = molecular target: T6, wt human JAK2, catalytic site (Homo sapiens, UniProt O60674); assay: HTRF KinEASE assay, JAK2; type: biochemical; settings: assay format not given (Z'-LYTE or HTRF KinEASE); read-out: IC50, Activity Toward JAK2
T6 construct: wt human JAK2, catalytic site; purchased SignalChem
In short: as §2

T3 sequence (Q5S007 970-2527 limits assumed): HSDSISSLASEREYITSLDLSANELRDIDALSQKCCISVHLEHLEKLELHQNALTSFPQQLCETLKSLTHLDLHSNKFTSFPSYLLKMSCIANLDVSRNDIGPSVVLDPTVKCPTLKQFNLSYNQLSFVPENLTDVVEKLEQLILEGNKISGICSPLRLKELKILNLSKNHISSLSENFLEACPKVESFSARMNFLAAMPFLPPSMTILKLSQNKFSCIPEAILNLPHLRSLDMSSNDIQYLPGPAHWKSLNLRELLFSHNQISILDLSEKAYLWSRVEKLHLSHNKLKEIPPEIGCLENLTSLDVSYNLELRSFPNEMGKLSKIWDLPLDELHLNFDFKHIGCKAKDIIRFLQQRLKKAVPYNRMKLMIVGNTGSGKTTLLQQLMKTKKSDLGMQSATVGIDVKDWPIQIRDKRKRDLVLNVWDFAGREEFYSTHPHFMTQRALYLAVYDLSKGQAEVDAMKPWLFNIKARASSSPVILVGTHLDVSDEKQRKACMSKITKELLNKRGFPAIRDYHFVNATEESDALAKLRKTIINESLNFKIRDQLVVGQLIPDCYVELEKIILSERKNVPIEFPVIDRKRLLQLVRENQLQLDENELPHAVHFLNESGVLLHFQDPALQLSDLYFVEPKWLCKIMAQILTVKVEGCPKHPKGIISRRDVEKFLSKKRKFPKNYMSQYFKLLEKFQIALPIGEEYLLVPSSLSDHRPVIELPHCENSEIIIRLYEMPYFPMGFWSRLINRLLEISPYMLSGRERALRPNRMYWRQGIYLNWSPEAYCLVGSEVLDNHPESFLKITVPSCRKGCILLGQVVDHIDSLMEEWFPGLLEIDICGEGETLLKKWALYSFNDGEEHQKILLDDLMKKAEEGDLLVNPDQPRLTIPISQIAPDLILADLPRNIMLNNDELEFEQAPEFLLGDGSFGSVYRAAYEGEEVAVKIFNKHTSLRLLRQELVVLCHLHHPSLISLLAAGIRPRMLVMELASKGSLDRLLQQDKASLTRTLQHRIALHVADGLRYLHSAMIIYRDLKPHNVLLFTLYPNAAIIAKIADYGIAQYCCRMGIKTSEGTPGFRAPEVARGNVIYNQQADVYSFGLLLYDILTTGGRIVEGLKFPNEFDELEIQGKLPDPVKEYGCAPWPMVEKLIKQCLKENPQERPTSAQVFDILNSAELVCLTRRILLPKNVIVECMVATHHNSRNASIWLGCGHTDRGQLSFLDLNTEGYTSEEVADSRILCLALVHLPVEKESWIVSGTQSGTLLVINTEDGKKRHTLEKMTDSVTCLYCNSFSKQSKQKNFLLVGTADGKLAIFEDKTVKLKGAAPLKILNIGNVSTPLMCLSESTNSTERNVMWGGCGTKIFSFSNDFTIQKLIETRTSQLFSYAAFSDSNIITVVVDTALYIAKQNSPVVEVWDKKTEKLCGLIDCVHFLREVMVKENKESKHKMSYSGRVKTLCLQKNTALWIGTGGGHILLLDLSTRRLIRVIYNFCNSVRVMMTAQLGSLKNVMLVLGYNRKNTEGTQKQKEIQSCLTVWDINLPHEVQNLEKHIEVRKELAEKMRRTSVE
T6 sequence (O60674 849-1124 limits assumed): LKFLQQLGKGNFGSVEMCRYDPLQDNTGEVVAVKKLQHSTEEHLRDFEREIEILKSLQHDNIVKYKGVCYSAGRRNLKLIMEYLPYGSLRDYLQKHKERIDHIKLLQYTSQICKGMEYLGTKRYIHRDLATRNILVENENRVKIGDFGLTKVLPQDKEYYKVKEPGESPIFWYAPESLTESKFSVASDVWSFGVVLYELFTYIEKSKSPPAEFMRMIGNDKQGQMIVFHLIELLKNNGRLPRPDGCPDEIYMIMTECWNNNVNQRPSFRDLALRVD
T5 sequence (Q5S007 970-2527 G2019S limits assumed): as the sequence (Q5S007 970-2527 limits assumed) above, with G1050S counted along it
T2 sequence (P23458 875-1153 limits assumed): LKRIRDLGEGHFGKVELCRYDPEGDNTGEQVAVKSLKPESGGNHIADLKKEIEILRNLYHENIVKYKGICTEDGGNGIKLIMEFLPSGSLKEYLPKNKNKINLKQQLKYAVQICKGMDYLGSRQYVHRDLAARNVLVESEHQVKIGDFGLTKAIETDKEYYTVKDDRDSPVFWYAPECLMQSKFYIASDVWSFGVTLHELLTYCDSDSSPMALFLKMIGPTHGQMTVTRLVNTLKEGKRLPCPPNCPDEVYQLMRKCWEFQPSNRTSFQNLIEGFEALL

| Compound | IC50 [1] [nM] | IC50 [2] [nM] | IC50 [3] [nM] | IC50 [4] [nM] | IC50 [5] [nM] | IC50 [6] [nM] |
| --- | --- | --- | --- | --- | --- | --- |
| NC(=O)c1nn(-c2c(F)cccc2Cl)cc1Nc1ccc(-c2nnc3n2CCCC3)cc1 [compound 58, 1-(2-chloro-6-fluorophenyl)-4-((4-(5,6,7,8-tetrahydro-[1,2,4]triazolo[4,3-a]pyridin-3-yl)phenyl)amino)-1H-pyrazole-3-carboxamide] | 100 to 1000 | 10 to 100 | 10 to 100 | < 10 | 10 to 100 | 100 to 1000 |
| NC(=O)c1nn(-c2c(F)cccc2Cl)cc1Nc1ccc(-c2nnc3n2CCOC3)cc1 [compound 62, 1-(2-chloro-6-fluorophenyl)-4-((4-(6,8-dihydro-5H-[1,2,4]triazolo[3,4-c][1,4]oxazin-3-yl)phenyl)amino)-1H-pyrazole-3-carboxamide] | 100 to 1000 | 100 to 1000 | 10 to 100 | < 10 | 10 to 100 | 100 to 1000 |
| CCn1cnnc1-c1ccc(Nc2cn(-c3c(Cl)cccc3Cl)nc2C(N)=O)cc1 [compound 87, 1-(2,6-dichlorophenyl)-4-((4-(4-ethyl-4H-1,2,4-triazol-3-yl)phenyl)amino)-1H-pyrazole-3-carboxamide] | 100 to 1000 | 10 to 100 | 100 to 1000 | < 10 | 100 to 1000 | 100 to 1000 |
| Cn1cnnc1-c1ccc(Nc2cn(-c3c(Cl)cccc3Cl)nc2C(N)=O)cc1 [compound 88, 1-(2,6-dichlorophenyl)-4-((4-(4-methyl-4H-1,2,4-triazol-3-yl)phenyl)amino)-1H-pyrazole-3-carboxamide] | 100 to 1000 | 10 to 100 | 100 to 1000 | < 10 | 100 to 1000 | 100 to 1000 |
| NC(=O)c1nn(-c2c(Cl)cccc2Cl)cc1Nc1ccc(-c2nncn2C2CCCC2)cc1 [compound 202, 4-((4-(4-cyclopentyl-4H-1,2,4-triazol-3-yl)phenyl)amino)-1-(2,6-dichlorophenyl)-1H-pyrazole-3-carboxamide] | 100 to 1000 | 100 to 1000 | 100 to 1000 | 10 to 100 | 100 to 1000 | 100 to 1000 |
| CC(C)n1cnnc1-c1ccc(Nc2cn(-c3c(Cl)cccc3Cl)nc2C(N)=O)cc1 [compound 205, 1-(2,6-dichlorophenyl)-4-((4-(4-isopropyl-4H-1,2,4-triazol-3-yl)phenyl)amino)-1H-pyrazole-3-carboxamide] | 100 to 1000 | 10 to 100 | 100 to 1000 | 10 to 100 | 100 to 1000 | 100 to 1000 |
| NC(=O)c1nn(-c2c(Cl)cccc2Cl)cc1Nc1ccc(-c2nncn2C2CC2)cc1 [compound 206, 4-((4-(4-cyclopropyl-4H-1,2,4-triazol-3-yl)phenyl)amino)-1-(2,6-dichlorophenyl)-1H-pyrazole-3-carboxamide] | 100 to 1000 | 10 to 100 | 100 to 1000 | 10 to 100 | 100 to 1000 | 100 to 1000 |
| CCn1cnnc1-c1ccc(Nc2cn(-c3c(F)cccc3Cl)nc2C(N)=O)cc1 [compound 207, 1-(2-chloro-6-fluorophenyl)-4-((4-(4-ethyl-4H-1,2,4-triazol-3-yl)phenyl)amino)-1H-pyrazole-3-carboxamide] | 100 to 1000 | 10 to 100 | 100 to 1000 | < 10 | 100 to 1000 | 100 to 1000 |
| CC(C)n1ncnc1-c1ccc(Nc2cn(-c3c(F)cccc3Cl)nc2C(N)=O)cc1 [compound 211, 1-(2-chloro-6-fluorophenyl)-4-((4-(1-isopropyl-1H-1,2,4-triazol-5-yl)phenyl)amino)-1H-pyrazole-3-carboxamide] | 100 to 1000 | 100 to 1000 | 10 to 100 | 10 to 100 | 10 to 100 | 100 to 1000 |

Continued, values first:

| IC50 [1] [nM] | IC50 [2] [nM] | IC50 [3] [nM] | IC50 [4] [nM] | IC50 [5] [nM] | IC50 [6] [nM] | Compound |
| --- | --- | --- | --- | --- | --- | --- |
| 100 to 1000 | 10 to 100 | 100 to 1000 | < 10 | 100 to 1000 | 100 to 1000 | NC(=O)c1nn(-c2c(Cl)cccc2Cl)cc1Nc1ccc(-c2nncn2CC(F)F)cc1 [compound 212, 1-(2,6-dichlorophenyl)-4-((4-(4-(2,2-difluoroethyl)-4H-1,2,4-triazol-3-yl)phenyl)amino)-1H-pyrazole-3-carboxamide] |
| 10 to 100 | 10 to 100 | 100 to 1000 | < 10 | 100 to 1000 | 100 to 1000 | NC(=O)c1nn(-c2c(F)cccc2Cl)cc1Nc1ccc(C(=O)N2CCCC2)cc1 [compound 227, 1-(2-chloro-6-fluorophenyl)-4-((4-(pyrrolidine-1-carbonyl)phenyl)amino)-1H-pyrazole-3-carboxamide] |
| 100 to 1000 | < 10 | 100 to 1000 | 10 to 100 | 100 to 1000 | 100 to 1000 | CCn1ccnc1-c1ccc(Nc2cn(-c3c(Cl)cccc3Cl)nc2C(N)=O)cc1 [compound 229, 1-(2,6-dichlorophenyl)-4-((4-(1-ethyl-1H-imidazol-2-yl)phenyl)amino)-1H-pyrazole-3-carboxamide] |
| 100 to 1000 | 10 to 100 | 100 to 1000 | < 10 | 100 to 1000 | 100 to 1000 | NC(=O)c1nn(-c2c(Cl)cccc2Cl)cc1Nc1ccc(-c2nnc3ccccn23)cc1 [compound 333, 4-((4-([1,2,4]triazolo[4,3-a]pyridin-3-yl)phenyl)amino)-1-(2,6-dichlorophenyl)-1H-pyrazole-3-carboxamide] |
| 100 to 1000 | 10 to 100 | 100 to 1000 | < 10 | 100 to 1000 | 100 to 1000 | NC(=O)c1nn(-c2c(Cl)ccc(F)c2Cl)cc1Nc1ccc(C(=O)N2CCOCC2)cc1 [compound 416, 1-(2,6-dichloro-3-fluorophenyl)-4-((4-(morpholine-4-carbonyl)phenyl)amino)-1H-pyrazole-3-carboxamide] |
| 100 to 1000 | < 10 | 100 to 1000 | < 10 | 100 to 1000 | 100 to 1000 | N#Cc1cccc(F)c1-n1cc(Nc2ccc(C(=O)N3CCS(=O)(=O)CC3)cc2)c(C(N)=O)n1 [compound 452, 1-(2-cyano-6-fluorophenyl)-4-((4-(1,1-dioxidothiomorpholine-4-carbonyl)phenyl)amino)-1H-pyrazole-3-carboxamide] |
| 100 to 1000 | 10 to 100 | 100 to 1000 | < 10 | 100 to 1000 | 100 to 1000 | N#Cc1cccc(F)c1-n1cc(Nc2ccc(C(=O)N3CCOCC3)cc2)c(C(N)=O)n1 [compound 454, 1-(2-cyano-6-fluorophenyl)-4-((4-(morpholine-4-carbonyl)phenyl)amino)-1H-pyrazole-3-carboxamide] |
